# Laboratory results reported in patent US20230140983A1, “PYRIDAZINE DERIVATIVES FOR MODULATING NUCLEIC ACID SPLICING” (REMIX THERAPEUTICS INC., priority 2020, published 2023).
# Like-named read-outs stand apart in the source and are kept apart here.
# Legend:
# Type in all cases: cell-based
# HTT [1] = test: Splicing assay (RT-qPCR on cell lysates) monitoring HTT splice variants: AJ and CJ mRNA; conditions: concentration having 50% response
# Method: Example 69: Exemplary Splicing Assay for Monitoring Expression Levels of Splice Variants
# (§1) To set up 10 uL RT-qPCR reactions, cell lysates were transferred to 384-well qPCR plates containing the master mix according to the table below. The plates were sealed, gently vortexed, and spun down before the run. The volumes were adjusted accordingly in some instances where the reaction was carried in 20 uL. The table below summarizes the components of the RT-qPCR reactions:
# (§2) The RT-qPCR reaction was performed using a QuantStudio (ThermoFisher) under the following fast cycling conditions. All samples and standards were analyzed at least in duplicate. In some instances, bulk room temperature (RT) step of 5-10 minutes was completed for all plates before proceeding with qPCR. The table below summarizes the PCR cycle:
# (§3) The data analysis was performed by first determining the ΔCt vs the housekeeper gene. This ΔCt was then normalized against the DMSO control (ΔΔCt) and converted to RQ (relative quantification) using the 2^(−ΔΔCt) equation. The RQ were then converted to a percentage response by arbitrarily setting an assay window of 3.5 ΔCt for HTT-CJ and an assay window of 9 ΔCt for HTT-AJ. […] The percentage response was then fitted to the 4 parametric logistic equation to evaluate the concentration dependence of compound treatment. The increase in AJ mRNA is reported as AC50 (compound concentration having 50% response in AJ increase) while the decrease in CJ mRNA levels is reported as IC50 (compound concentration having 50% response in CJ decrease).
# SMN2 = test: Gene panel canonical junction qPCR assay, SMN2 CJ mRNA; conditions: Table 9, CJ mRNA decrease, read-out: SMN2 IC50 (decrease in CJ mRNA levels)
# Method: as §1, §2, §3
# (§4) Additional studies were carried out for a larger panel of genes using the protocol provided above. The junction between flanking upstream and downstream exons was used to design canonical junction qPCR assays. At least one of the forward primer, reverse primer or the CY5-labeled 5′ nuclease probe (with 3′ quencher such as ZEN/Iowa Black FQ) was designed to overlap with the exon junction to capture the CJ mRNA transcript. BLAST was used to confirm the specificity of the probeset and parameters such as melting temperature, GC content, amplicon size, and primer dimer formation are considered during their design. Data for the decrease in CJ mRNA levels for three exemplary genes (HTT, SMN2, and Target C) analyzed in this panel are reported as IC50 (compound concentration having 50% response in CJ decrease).
# HTT [2] = test: Gene panel canonical junction qPCR assay, HTT CJ mRNA; conditions: Table 9, CJ mRNA decrease, read-out: HTT IC50 (decrease in CJ mRNA levels)
# Method: as §1, §2, §3, §4
# Target C = test: Gene panel canonical junction qPCR assay, Target C CJ mRNA; conditions: Table 9, CJ mRNA decrease, read-out: Target C IC50 (decrease in CJ mRNA levels)
# Method: as §1, §2, §3, §4
# [3] = Table 8, decrease in CJ mRNA, read-out: HTT CJ AC50
# [4] = Table 8, increase in AJ mRNA, read-out: HTT AJ AC50
SMILES,AC50 (HTT [1]; [3]) [nM],AC50 (HTT [1]; [4]) [nM],IC50 (SMN2) [nM],IC50 (HTT [2]) [nM],IC50 (Target C) [nM],"AC50 (HTT [1]; Table 7, decrease in CJ mRNA, read-out: HTT CJ AC50) [nM]","AC50 (HTT [1]; Table 7, increase in AJ mRNA, read-out: HTT AJ AC50) [nM]"
c1nc2c(-c3cn[nH]c3)ccc(-c3ccc(N4CC5(CCNCC5)C4)nn3)c2s1 [Compound 197],1000 to 10000,1000 to 10000,1000 to 10000,1000 to 10000,> 10000,,
CN(c1ccc(-c2ccc(-n3cccn3)c3nc[nH]c23)nn1)[C@@H]1C[C@H]2CC[C@@H](C1)N2 [Compound 170],1000 to 10000,1000 to 10000,100 to 1000,1000 to 10000,> 10000,500 to 5000,> 5000
CN(c1ccc(-c2ccc(-c3ccn(C)c(=O)c3)c3scnc23)nn1)C1CC(C)(C)NC(C)(C)C1 [Compound 174],1000 to 10000,1000 to 10000,100 to 1000,1000 to 10000,> 10000,,
"CN(c1ccc(-c2ccc(-c3cn[nH]c3)c3ncsc23)nn1)[C@@H]1C[C@H]2CC[C@@H](C1)N2 [Compound 213, (exo)-N-methyl-N-{6-[4-(1H-pyrazol-4-yl)-1,3-benzothiazol-7-yl]pyridazin-3-yl}-8-azabicyclo[3.2.1]octan-3-amine]",< 100,< 100,< 100,< 100,< 100,,
"CN(c1ccc(-c2ccc(-c3cn[nH]c3)c3ncsc23)nn1)[C@H]1[C@@H]2CNC[C@@H]21 [Compound 205, (exo-)-N-methyl-N-[6-[4-(1H-pyrazol-4-yl)-1,3-benzothiazol-7-yl]pyridazin-3-yl]-3-azabicyclo[3.1.0]hexan-6-amine]",> 10000,> 10000,1000 to 10000,> 10000,> 10000,,
"CCN(c1ccc(-c2ccc(-c3cn[nH]c3)c3ncsc23)nn1)[C@@H]1C[C@H]2CC[C@@H](C1)N2 [Compound 203, (exo-)-N-ethyl-N-[6-[4-(1H-pyrazol-4-yl)-1,3-benzothiazol-7-yl]pyridazin-3-yl]-8-azabicyclo[3.2.1]octan-3-amine]",100 to 1000,100 to 1000,< 100,100 to 1000,100 to 1000,,
"[2H]C([2H])([2H])N(c1ccc(-c2ccc(-c3cn[nH]c3)c3ncsc23)nn1)C1CCNCC1 [Compound 223, N-(D3)methyl-N-(piperidin-4-yl)-6-[4-(1H-pyrazol-4-yl)-1,3-benzothiazol-7-yl] pyridazin-3-amine]",1000 to 10000,1000 to 10000,100 to 1000,1000 to 10000,1000 to 10000,,
COc1cc(-c2ccc(-c3ccc(N(C)C4CC(C)(C)NC(C)(C)C4)nn3)c3ncsc23)ccn1 [Compound 177],> 10000,> 10000,1000 to 10000,> 10000,> 10000,,
CN(c1ccc(-c2ccc(-c3ccc(=O)n(C)c3)c3scnc23)nn1)C1CC(C)(C)NC(C)(C)C1 [Compound 178],> 10000,> 10000,> 10000,> 10000,> 10000,,
CN(c1ccc(-c2ccc(-c3cn[nH]c3)c3ncsc23)nn1)[C@@H]1C[C@H]2CCC[C@@H](C1)N2 [Compound 226],< 100,< 100,< 100,< 100,< 100,,
c1nc2c(-c3cn[nH]c3)ccc(-c3ccc(C4CCNCC4)nn3)c2s1 [Compound 206],1000 to 10000,> 10000,< 100,1000 to 10000,> 10000,,
c1nc2c(-c3cn[nH]c3)ccc(-c3ccc(NC4CNC4)nn3)c2s1 [Compound 196],> 10000,> 10000,> 10000,> 10000,> 10000,,
CCN(c1ccc(-c2ccc(-c3cn[nH]c3)c3ncsc23)nn1)[C@@H]1C[C@H]2CCC[C@@H](C1)N2 [Compound 228],< 100,100 to 1000,< 100,< 100,< 100,,
